Experimental data as given in patent US11739194B2, “Glycerol-silicone elastomers as active matrices with controllable release profiles” (Danmarks Tekniske Universitet, priority 2017, dated 2023).

Columns and labels:
[1] = Erythrosine B and hydroquinone release from dual compartment glycerol-silicone elastomer immersed in deionized water (UV-vis); format: physicochemical; conditions: for release kinetics (order): dual compartment elastomer, 80 phr total glycerol concentration
Description: For the present experiment two solutions were prepared—glycerol-erythrosine B and glycerol-hydroquinone solutions. Glycerol-erythrosine B solution contained 4 g of glycerol and 0.04 g of erythrosine B. Glycerol-hydroquinone solution contained 4 g of glycerol and 0.2 g of hydroquinone. Single emulsions were prepared as detailed above and were subsequently used to prepare two distinct glycerol-in-silicone emulsions. The glycerol-erythrosine B and glycerol-hydroquinone solutions were each added to 5 g of a silicone prepolymer in respective, separate containers. In this case, Sylgard 184 silicone kit from Dow Corning was applied. The respective mixtures were subsequently speed-mixed for 2 to 5 minutes using a dual asymmetric centrifuge DAC SpeedMixer. To prepare the dual compartment silicone elastomers, the two glycerol-in-silicone emulsions were combined. Desired amounts of each of the emulsions were placed into a speed-mixing cup. The composition was subsequently speed-mixed at low mixing rates (typically between from 500 to 1000 rpm) for around 1 minute in order to uniformly distribute both types of droplets within the silicone matrix. Stable emulsions can be mixed with any given speed. […] After combining and mixing both single emulsions a dual compartment emulsion was obtained. The emulsion contained 10 g of silicone, 4.04 g of glycerol droplets containing erythrosine B and 4.2 g of glycerol droplets containing hydroquinone. The total mass of the emulsion was 18.24 g. In a final step, the elastomer emulsions were cured at 80° C. for 1 hour. Long exposure to high temperatures results in glycerol evaporation therefore prolonged high temperature curing should be avoided. […] Release profiles of erythrosine and hydroquinone from the glycerol-silicone elastomers were determined by immersing composites in deionized water. The progress of release of erythrosine B and hydroquinone was monitored by measuring changes in concentration of both compounds in the aqueous environment. […] Each release profile curve represents an average of three separate experiments. Films with thickness of 0.3 mm were investigated. Such thin films tend to self-adhere therefore they were mounted onto custom-made frames (FIG. 4) to maintain a constant exposed surface area and placed in beakers equipped with magnetic stirring.

[2] = Hydroquinone release from single compartment glycerol-silicone elastomers immersed in deionized water (UV-vis); format: physicochemical; conditions: hydroquinone alone (single glycerol phase), 80 phr total glycerol concentration
Description: The example provided leads to a 1.42 g batch of material that may readily be scaled up or down. Using the described method batches from between 1 g and 80 g were prepared. Hydroquinone (HQ, 0.02 g, 5 wt. %) was dissolved in glycerol (0.4 g) at 50° C. using magnetic stirring until a clear solution was obtained (typically around 1-2 hours). […] Sample nomenclature uses the pattern GX HQY S184 Z, where G and X correspond to glycerol and concentration of glycerol in phr (weight parts per hundred weight parts of silicone elastomer), HQ and Y correspond to hydroquinone and concentration of hydroquinone dissolved in glycerol (expressed as weight percentage of HQ in glycerol) and S184 corresponds to applied silicone composition, respectively. […]
Release profiles of HQ from the glycerol-silicone elastomers were determined by immersing composites containing various amounts of glycerol with 5 wt % of HQ in deionized water. The progress of hydroquinone release was monitored by measuring changes in concentration of hydroquinone in the aqueous environment. A UV-vis spectrophotometer POLARstar Omega microplate reader by BMG LabTech was used for the tests, and outcomes were compared against a calibration curve for hydroquinone/water solutions. […]

Row | Molecule | time after which the entire incorporated amount was released ([1]; 0.3 mm thick dual compartment elastomer, 40 phr glycerol with erythrosine B + 40 phr glycerol with hydroquinone) | share of the total amount released with zero-order kinetics ([1]; 0.3 mm thick dual compartment elastomer, 80 phr glycerol in total) [%] | release kinetics (order) [1] | release kinetics (order) [2] | amount released ([1]; after 28 hours, 0.3 mm thick dual compartment elastomer, 80 phr glycerol in total) [%]
1 | Oc1ccc(O)cc1 [hydroquinone] | around 6 hours | ~80 | zero-order release kinetics | near-zero order release kinetics | –
2 | erythrosine B | – | – | zero-order kinetics throughout the whole experiment | – | 15
